According to paper PMC8747035, “Design, Synthesis, and Biological Evaluation of 5,6,7,8-Tetrahydrobenzo[4,5]thieno[2,3-d]pyrimidines as Microtubule Targeting Agents” (Molecules, 2022):

How the values were obtained:
MDA-MB-231/ATCC = assay: NCI-60 growth inhibition, MDA-MB-231/ATCC; type: cell-based; conditions: Homo sapiens, Breast Cancer
Excerpt: (§1) Compound 4 had better potency than the lead compound 1 in 50 cancer cell lines. (better by 5 to 6-fold in leukemia, 2 to 17-fold in NSCLC, 2 to 6-fold in colon cancer, 2 to 5-fold in CNS cancer, 2 to 25-fold in melanoma, 2 to 5-fold in ovarian cancer, 2 to 9-fold in renal cancer, 2 to 5-fold in prostate cancer, and 2 to 6-fold in breast cancer compared to lead compound 1).

OVCAR-3 = assay: NCI-60 growth inhibition, OVCAR-3; type: cell-based; conditions: Homo sapiens, Ovarian Cancer
Excerpt: as §1

MOLT-4 = assay: NCI-60 growth inhibition, MOLT-4; type: cell-based; conditions: Homo sapiens, Leukemia
Excerpt: as §1

tubulin = assay: Inhibition of [3H]colchicine binding to tubulin; parameters: species or system Bovine; conditions: compound at 5 μM, 5.0 µM [3H]colchicine, 1.0 µM tubulin
Protocol: Bovine brain tubulin was purified as described previously. The tubulin assembly assay has been described in detail. Briefly, 1.0 mg/mL of tubulin (10 µM) was preincubated for 15 min at 30 °C in 0.8 M monosodium glutamate (pH of 2 M stock solution adjusted to 6.6 with HCl), varying compound concentrations and 4% (v/v) DMSO as compound solvent. After the preincubation, the reaction mixtures were placed on ice and 0.4 mM GTP was added. The reaction mixtures were transferred to cuvettes at 0 °C in a recording spectrophotometer equipped with an electronic temperature controller. After baselines were established, the temperature was elevated over about 30 s to 30 °C, and changes in turbidity were monitored at 350 nm for 20 min. The compound concentration that caused a 50% reduction in increase in turbidity, interpolated from the values obtained with defined compound concentrations, was defined as the IC50 value. The assay to measure inhibition of [^3H]colchicine binding was described in detail previously. Briefly, 0.1 mg/mL (1.0 µM) tubulin was incubated at 37 °C with 5.0 µM [3H]colchicine and potential inhibitors at 5.0 µM. […] The [^3H]colchicine was a product of PerkinElmer, USA.

OVCAR-8 = assay: NCI-60 growth inhibition, OVCAR-8; type: cell-based; conditions: Homo sapiens, Ovarian Cancer
Excerpt: as §1

MDA-MB-435 = assay: NCI-60 growth inhibition, MDA-MB-435; type: cell-based; conditions: Homo sapiens, Melanoma
Excerpt: as §1

HeLa WTβIII cells = assay: SRB assay in βIII-tubulin expressing HeLa WTβIII cells; type: cell-based; conditions: Homo sapiens, read-out: IC50 ± SD in HeLa WTβ3
Protocol: Compounds 4–8, 10, 12, and 13 were evaluated for their abilities to overcome βIII-tubulin mediated drug resistance using an isogenic HeLa cell line pair (Table 4). […] The Rr values (Table 4) were calculated by dividing the IC50 of the βIII-tubulin expressing line by the IC50 obtained in the parental HeLa cells.
The antiproliferative and cytotoxic effects of the compounds in cancer cells were evaluated using the SRB assay as previously described. MDA-MB-435 cells were obtained from the Lombardi Cancer Center of Georgetown University (Washington, DC, USA). SK-OV-3 and HeLa cells were purchased from ATCC. Details about the generation of the SK-OV-3 MDR1-M6/6 and HeLa WTβIII cells were described previously. The IC50 values represent an average of three independent experiments, each conducted using triplicate points.
HeLa, A-10, SK-OV-3, and SK-OV-3 MDR1-M6/6 cells were grown in Basal Medium Eagle (Sigma-Aldrich, St. Louis, MO, USA) supplemented with 10% FBS (Hyclone, GE Life Sciences, Logan, UT, USA) 1% GlutaMAX (Gibco, Life Technologies, Waltham, MA, USA) and 50 µg/mL gentamycin (Life Technologies, USA). HeLa WTβIII cells were grown in Dulbecco’s Modified Eagle Medium (Life Technologies) supplemented with 10% FBS and 50 µg/mL gentamycin. MDA-MB-435 cells were maintained in Improved Minimum Essential Medium (Life Technologies) supplemented with 10% FBS and 25 µg/mL gentamycin. All cells were grown at 37 °C in a humidified environment with 5% CO2.

NCI-H322M = assay: NCI-60 growth inhibition, NCI-H322M; type: cell-based; conditions: Homo sapiens, NSCLC
Excerpt: as §1

U251 = assay: NCI-60 growth inhibition, U251; type: cell-based; conditions: Homo sapiens, U-251, CNS Cancer
Excerpt: as §1

[1] = tested on: NCI-60 cancer cell line panel; assay: NCI-60 cancer cell line panel (overall); type: cell-based; conditions: Homo sapiens; 40 most sensitive of the 60 cancer cell lines
Excerpt: as §1

SF-268 = assay: NCI-60 growth inhibition, SF-268; type: cell-based; conditions: Homo sapiens, CNS Cancer
Excerpt: as §1

A549/ATCC = assay: NCI-60 growth inhibition, A549/ATCC; type: cell-based; conditions: Homo sapiens, NSCLC
Excerpt: as §1

HOP-92 = assay: NCI-60 growth inhibition, HOP-92; type: cell-based; conditions: Homo sapiens, NSCLC
Excerpt: as §1

IGROVI = assay: NCI-60 growth inhibition, IGROVI; type: cell-based; conditions: Homo sapiens, Ovarian Cancer
Excerpt: as §1

HCT-15 = assay: NCI-60 growth inhibition, HCT-15; type: cell-based; conditions: Homo sapiens, Colon Cancer
Excerpt: as §1

RXF 393 = assay: NCI-60 growth inhibition, RXF 393; type: cell-based; conditions: Homo sapiens, Renal Cancer
Excerpt: as §1

EKVX = assay: NCI-60 growth inhibition, EKVX; type: cell-based; conditions: Homo sapiens, NSCLC
Excerpt: as §1

HT29 = assay: NCI-60 growth inhibition, HT29; type: cell-based; conditions: Homo sapiens, HT-29, Colon Cancer
Excerpt: as §1

ACHN = assay: NCI-60 growth inhibition, ACHN; type: cell-based; conditions: Homo sapiens, Renal Cancer
Excerpt: as §1

BT-549 = assay: NCI-60 growth inhibition, BT-549; type: cell-based; conditions: Homo sapiens, Breast Cancer
Excerpt: as §1

SK-MEL-28 = assay: NCI-60 growth inhibition, SK-MEL-28; type: cell-based; conditions: Homo sapiens, Melanoma
Excerpt: as §1

For COc1ccc(N(C)c2nc(N)nc3sc4c(c23)CCCC4)cc1 [Compound 4, N4-(4-methoxyphenyl)-N4-methyl-5,6,7,8-tetrahydrobenzo[4,5]thieno[2,3-d]pyrimidine-2,4-diamine], the GI50 (MDA-MB-231/ATCC) was 10.9 nM, the GI50 (OVCAR-3) was 17.1 nM and the GI50 (MOLT-4) was 8.8 nM. The “Inhibition of Colchicine Binding (% inhibition ± SD)” value (tubulin) was 99.0 ± 1.0%, the GI50 (OVCAR-8) was 18.1 nM and the GI50 (MDA-MB-435) was 4.89 nM. The IC50 (HeLa WTβIII cells) was 10.6 ± 1.8 nM, the GI50 (NCI-H322M) was 11.6 nM and the GI50 (U251) was 9.6 nM. For the same compound, the GI50 [1] was ~10 nM, the GI50 (SF-268) was 15.9 nM and the GI50 (A549/ATCC) was 12 nM. For the same compound, the GI50 (HOP-92) was 14.1 nM, the GI50 (IGROVI) was 12.8 nM and the GI50 (HCT-15) was 8.85 nM. It also gave a GI50 (RXF 393) of 7.65 nM, a GI50 (EKVX) of 11.2 nM and a GI50 (HT29) of 6.21 nM. For the same compound, the GI50 (ACHN) was 10.2 nM, the GI50 (BT-549) was 17.5 nM and the GI50 (SK-MEL-28) was 12.1 nM.
